Assay results published in patent US12011433B2 (UNIVERSITÁ DEGLI STUDI DI BARI “ALDO MORO”, priority 2016, dated 2024).

Legend:
[1] = Caco-2 monolayer efflux assay, Apparent Permeability (Papp), with or without GLUT-1 inhibitor phloretin; assay type: in vitro ADME, Human; conditions: human, compound alone
Protocol: (§1) In a monolayer efflux assay, the Apparent Permeability (Papp) in both basolateral to apical [Papp(B→A)] and apical to basolateral [Papp(A→B)] directions was determined for each compound (FIG. 2). Human colonic adenocarcinoma cell line (Caco-2) presents a facilitated transport system at the apical and basolateral surface. Caco-2 cells express high levels of GLUT-1 that are localized to the basolateral membrane and transport glucose to the serosal side.
(§2) The Papp(B→A) flux of each compound alone or in the presence of phloretin, a GLUT-1 inhibitor, has been determined. Since GLUT-1 is express in the basolateral compartment a high B→A flux means that the transport is GLUT-1 mediated because B→A flux represents the active transport.
(§3) A→B flux, which represents the passive transport, has also been determined for each compound (Table 2).

Caco-2 cells = assay: as above; assay type: in vitro ADME, Human; conditions: compound alone
Protocol: as §1, §2, §3

GFAP = assay: astroglial activation in LPS-treated mice, GFAP immunoreactivity and immunoblotting; assay type: in vivo
Protocol: The protein concentration in the supernatant was spectrophotometrically determined by Bradford's protein assay (Bradford, 1976). […] Proteins (25 μg/lane) and prestained standards (BioRad Laboratories, Hercules, CA, USA) were loaded on 7% or 12% SDS precast polyacrylamide gels (BioRad Laboratories). After electrophoresis, the resolved proteins were transferred from the gel to nitrocellulose membranes. A blotting buffer [20 mMTris/150 mM glycine, pH=8.0, 20% (v/v) methanol] was used for gel and membrane saturation and blotting. […] Bands were visualized by chemiluminescence detection (Invitrogen, Milan, Italy). The β-actin level was used as a protein loading control. For tissue analysis, obtained bands were normalized to the level of β-actin performed for each cerebral area tested. For cell cultures the bands were normalized to the β-actin level in each experimental condition. […] VM in all the Figures) once a day for 10 days. […] On the seventh day, mice were anesthetized with tribromoethanol (250 mg/Kg, i.p.) and positioned in a stereotactic apparatus (Kopf Instruments, Tujunga, CA, USA). […] Immunohistochemistry was performed following a standard avidin-biotin complex procedure. […]

COX-1 = COX-1 (Mus musculus (Mouse), UniProt P22437); assay: COX-1 expression in brain regions of LPS-treated mice, immunoblotting; assay type: in vivo; conditions: for COX-1 expression reduction (%): LPS-treated mice, mofezolac 6 mg/kg i.p.
Protocol: Substantia nigra pars compacta (SNpc), Hippocampus, Frontal lobe and Caudate from mice brains were minced in ice-cold PBS, washed and then homogenized in a buffer containing lysis buffer (50 mM Tris pH 8, 0.02 g/mL NaCl, 0.2% SDS, 1% Triton-X, 4 U/ml aprotinin, 2 mM leupeptin, 100 mM phenylmethanesulfonyl fluoride).
The tissue and cell culture lysates were vortexed for 15-20 s and, then, centrifuged at 12,800×g for 20 min. The protein concentration in the supernatant was spectrophotometrically determined by Bradford's protein assay (Bradford, 1976). Protein samples were diluted with sample buffer (0.5 M Tris-HCl pH=6.8, 10% glycerol, 10% (w/v) SDS, 5% 2-mercaptoethanol, 0.05% (w/v) bromophenol blue) and then boiled for 3 min. Proteins (25 μg/lane) and prestained standards (BioRad Laboratories, Hercules, CA, USA) were loaded on 7% or 12% SDS precast polyacrylamide gels (BioRad Laboratories).
After electrophoresis, the resolved proteins were transferred from the gel to nitrocellulose membranes. A blotting buffer [20 mMTris/150 mM glycine, pH=8.0, 20% (v/v) methanol] was used for gel and membrane saturation and blotting. Then, membranes were incubated in the dark with 1 μg/mL mouse monoclonal antibody (MoAb) anti-COX-1 and rabbit polyclonal Ab anti-COX-2 (1:1000) (both from AbCam, Cambridge, UK), rabbit polyclonal Ab anti p-IkB-α (1:200), mouse polyclonal Ab anti β-actin (1:500) (all from Santa Cruz Biotechnology), mouse MoAb anti-glial fibrillary acidic protein (GFAP) (1:200) and mouse mAb anti-ionized calcium-binding adapter molecule-1 (Iba-1) (1:200) (both from Merck Millipore) overnight at 4° C. The membranes were washed with 0.1% Tween 20-PBS (for 20 min, 3 times) and then incubated with the secondary antibody diluted 1:2000 for 60 min. Bands were visualized by chemiluminescence detection (Invitrogen, Milan, Italy). The β-actin level was used as a protein loading control. For tissue analysis, obtained bands were normalized to the level of β-actin performed for each cerebral area tested. For cell cultures the bands were normalized to the β-actin level in each experimental condition.
On the seventh day, mice were anesthetized with tribromoethanol (250 mg/Kg, i.p.) and positioned in a stereotactic apparatus (Kopf Instruments, Tujunga, CA, USA). […] Sterotaxic injections coordinates were: 2.3 mm dorsal/ventral, 1.0 mm lateral, and 0.5 mm anterior/posterior from the bregma.

p-IkBα = assay: NF-kB activation (p-IkBα) in brain areas of LPS-treated mice, immunoblotting; assay type: in vivo; conditions: all tested brain areas of LPS-treated mice
Protocol: The protein concentration in the supernatant was spectrophotometrically determined by Bradford's protein assay (Bradford, 1976). […] Proteins (25 μg/lane) and prestained standards (BioRad Laboratories, Hercules, CA, USA) were loaded on 7% or 12% SDS precast polyacrylamide gels (BioRad Laboratories). After electrophoresis, the resolved proteins were transferred from the gel to nitrocellulose membranes. A blotting buffer [20 mMTris/150 mM glycine, pH=8.0, 20% (v/v) methanol] was used for gel and membrane saturation and blotting. […] Bands were visualized by chemiluminescence detection (Invitrogen, Milan, Italy). The β-actin level was used as a protein loading control. For tissue analysis, obtained bands were normalized to the level of β-actin performed for each cerebral area tested. For cell cultures the bands were normalized to the β-actin level in each experimental condition. […] VM in all the Figures) once a day for 10 days. […] On the seventh day, mice were anesthetized with tribromoethanol (250 mg/Kg, i.p.) and positioned in a stereotactic apparatus (Kopf Instruments, Tujunga, CA, USA).

In the case of COc1ccc(-c2noc(CC(=O)O)c2-c2ccc(OC)cc2)cc1 [mofezolac, 2-(3,4-bis(4-methoxyphenyl)isoxazol-5-yl)acetic acid], the Papp B→A [1] is reported as 46.1 ×10⁻⁶ cm/s, the “Papp A→B” value (Caco-2 cells) is reported as 41.4 ×10⁻⁶ cm/s and the “Papp B→A” value (Caco-2 cells) is reported as 46.1 ×10⁻⁶ cm/s. The GFAP levels (GFAP; immunoblotting, mofezolac + LPS vs LPS alone) was “significantly reduced”, the GFAP immunoreactive cells (GFAP; immunohistochemistry, LPS-treated mice, mofezolac 6 mg/kg i.p., all the tested brain areas) was “reduced the presence of GFAP immunoreactive cells” and the “COX-1 expression reduction (%)” value (COX-1; Caudate) was 95%. For the same compound, the “COX-1 expression reduction (%)” value (COX-1; Frontal lobe) was 94%, the “COX-1 expression reduction (%)” value (COX-1; Hippocampus) was 82% and the COX-1 expression (COX-1; LPS challenged mice, all brain areas tested) was “significantly reduction of COX-1 expression”. For the same compound, the “COX-1 expression reduction (%)” value (COX-1; Substantia nigra) was 89% and the p-IkBα (p-IkBα) was “significant reduction”.
